The test system of assay [1] is Flaviramulus sp. KLE1215. Put plainly: Growth of KLE1215 in liquid culture with quinones delivered in liposomes. Type of assay: cell-based. To be noted: R2A broth, 50% artificial sea salts, 0.001% Fe(II), MK4 250 μM to 1.5 mM, MK6 and MK6 chromenols purified from KLE1215. Here is the method: The growth of Flaviramulus sp. KLE1215 is enhanced by the addition of purified quinone-like compounds when they are delivered in liposomes. […] Growth of KLE1215 induced with varying concentrations of MK4 delivered in liposomes. 5 ml liquid cultures of KLE1215 were set up with no supplement (squares), empty liposomes as liposome control (triangles), liposomes loaded with 250 μM MK4 (cross), liposomes loaded with 500 μM MK4 liposomes (asterisk), liposomes loaded with 750 μM MK4 (circle), liposomes loaded with 1 mM MK4 (vertical line), liposomes loaded with 1.25 mM MK4 (dark line), and liposomes loaded with 1.5 mM MK4 (light line) is shown in FIG. 8. […] broth (without yeast extract) with 50% artificial sea salts supplemented with 0.001% Fe(II) was used for these cultures. Values represent the average of two independent cultures of KLE1215 in […] broth with 50% artificial sea salts supplemented with 0.001% Fe(II). […] 5 ml liquid cultures of KLE1215 were prepared with nothing added (squares), empty liposome as liposome control (triangles), liposomes loaded with MK6 from KLE1215 (cross), and liposomes loaded with MK6 chromenols from KLE1215 (asterisk). R2A broth (without yeast extract) with 50% artificial sea salts supplemented with 0.001% Fe(II) was used for these cultures. Values represent the average of independent cultures of KLE1215 in […] broth with 50% artificial sea salts supplemented with 0.001% Fe(II).

The test system of assay [2] is KLE1280. As to the kind of experiment: Induction of growth of KLE1280 by quinones on plates. Type of assay: cell-based, Porphyromonas sp. KLE1280. As to the method:
Serial dilutions of dental plaque from a healthy individual were spread onto Fastidious Anaerobe Agar plates containing 5% sheep blood and 5% pooled human saliva (FBS) and incubated anaerobically. Small colonies growing next to large ones on dense plates were picked and spread onto fresh FBS plates. A helper mix of colonies growing around individual small colonies was spotted on these plates. Isolates were identified that depended for growth on this mix. If E. coli produces a growth factor, its identification can be efficiently performed, since a complete knockout library of this species is available. Testing knockout mutants identifies those that lost their ability to help growth of the uncultured organism, which then leads to the identification of the biosynthetic pathway of the growth factor. […] This organism is closely related to Porphyromonas sp. oral taxon 279 (99% similarity by 16S rRNA gene sequencing) (96% similarity to closest type strain Porphyromonas catoniae). In particular, KLE1280 is closely related to Porphyromonas catoniae (96% similarity by 16S rRNA gene sequencing). […] This deletion mutant has the menaquinone biosynthesis genes deleted. […] 5 genes in the menaquinone biosynthesis pathway are knocked out in this mutant (http://www.shigen.nig.ac.jp/ecoli/pec/quickSearch.List.DeletionsDetailAction.do?fromListFlag=true&classId=4&deId=226). E. coli strains with single gene deletions in the menaquinone biosynthesis pathway were tested for induction of growth.
Different quinones (Q), commercially available and/or isolated from E. coli and Micrococcus luteus were tested for induction of growth of KLE1280.
Different concentrations of MK4 were spotted on media with and without blood (5%) or hemin (10 μg/ml) or hemoglobin (100 μg/ml).

The subject of assay [3] is Bizinio sp. KLE1402. Put plainly: Growth of KLE1402 in liquid culture with quinone-loaded liposomes. Type of assay: cell-based. To be noted: delivered by liposomes loaded with 500 μM MK4; R2A broth, 50% sea salts, 0.001% Fe(II). The text has this: Two isolates were streaked for isolation; the culturable helper on the left induces the growth of unculturable KLE1402 on the right only when it is close proximity. The closest relative to the dependent KLE1402 is Bizionia echini (96.6% Identity according to 16S rRNA gene sequence), from the family Flavobacteriaceae. The closest relative to the helper KLE1403 is Ruegeria lacuscaerulensis (98.4% identity by 16S rRNA gene sequence), from the class Alphaproteobacteria. E. coli induces the growth of KLE1402 (FIG. 11). KLE1402 spread evenly on R2A with 50% artificial sea salts and 0.001% Fe(II) with a dense spot of E. coli. […] KLE1402 spread evenly on R2A with 50% artificial sea salts and 0.001% Fe(II) with a dense spot of E. coli ΔubiG. KLE1402 grows with the addition of quinone-loaded liposomes (FIG. 13). Cells of KLE1402 were used to inoculate culture tubes with 5 ml R2A broth with 50% sea salts and 0.001% Fe(II). Tube A: no supplement, Tube B: Empty liposomes added, Tube C: Liposomes loaded with 500 μM MK4 added. KLE1402 grows with the addition of quinone-loaded liposomes (FIG. 14). 5 ml liquid cultures of KLE1402 were set up with no supplement (squares), empty liposomes as liposome control (triangles), liposomes loaded with 500 μM MK4 (cross). R2A broth with 50% artificial sea salts supplemented with 0.001% Fe(II) was used as media for these cultures. […]

[4] abbreviates: quinone isolated from M. luteus.

Like-named read-outs stand apart in the source and are kept apart here.

Turning to menachromenal 6 [MK6 chromenols], the “growth of KLE1215” value in assay [1] is reported as “growth-enhancing effects”.
On to hemin, for which the “induction of growth of KLE1280” value in assay [2] (substance alone) is “did not induce growth”.
With `COC1=C(OC)C(=O)C(C/C=C(\C)CC/C=C(\C)CC/C=C(\C)CC/C=C(\C)CC/C=C(\C)CC/C=C(\C)CC/C=C(\C)CC/C=C(\C)CCC=C(C)C)=C(C)C1=O` [Q9], the “Results: induction of growth of KLE1280” value in assay [2] (quinone commercially available) is listed as “No induction”.
The same measure, in the same setting: in the case of `COC1=C(OC)C(=O)C(C/C=C(\C)CCC=C(C)C)=C(C)C1=O` [Q2] it was “No induction”.
With `COC1=C(OC)C(=O)C(C/C=C(\C)CC/C=C(\C)CC/C=C(\C)CC/C=C(\C)CC/C=C(\C)CC/C=C(\C)CC/C=C(\C)CCC=C(C)C)=C(C)C1=O` [Ubiquinone8], the “Results: induction of growth of KLE1280” value in assay [2] (quinone isolated from E. coli) is “No induction”.
Turning to `COC1=C(OC)C(=O)C(CC=C(C)C)=C(C)C1=O` [Q1], the “Results: induction of growth of KLE1280” value in assay [2] (quinone commercially available) is “No induction”.
Regarding hemoglobin, the “induction of growth of KLE1280” value in assay [2] (substance alone) is listed as “did not induce growth”.
As for `COC1=C(OC)C(=O)C(C/C=C(\C)CC/C=C(\C)CC/C=C(\C)CC/C=C(\C)CC/C=C(\C)CC/C=C(\C)CC/C=C(\C)CC/C=C(\C)CC/C=C(\C)CCC=C(C)C)=C(C)C1=O` [Q10], the “Results: induction of growth of KLE1280” value in assay [2] (quinone commercially available) is listed as “No induction”.
In the case of `CC(C)=CCC/C(C)=C/CC/C(C)=C/CC/C(C)=C/CC/C(C)=C/CC1=C(C)C(=O)c2ccccc2C1=O` [Menaquinone5], the “Results: induction of growth of KLE1280” value in assay [2] (setting [4]) is reported as “Induction”.
For the molecule `CC(C)=CCC/C(C)=C/CC/C(C)=C/CC/C(C)=C/CC1=C(C)C(=O)c2ccccc2C1=O` [Menaquinone4], the “induction of growth of KLE1280” value in assay [2] was “induced growth”; in assay [2] (spotted on media with blood (5%) or hemin (10 μg/ml) or hemoglobin (100 μg/ml)), “induced growth only in the presence of either of these 3 in the medium”; in assay [2] (substance alone), “did not induce growth”. Moreover, the “Results: induction of growth of KLE1280” value in assay [2] (quinone commercially available) and in assay [2] (setting [4]) was “Induction” in each case. Moreover, the “growth of KLE1215” value in assay [1] is “growth-enhancing effects”. For the same molecule, in assay [3], the “growth of KLE1402” value is “can induce the growth”.
Turning to `CC(C)=CCC/C(C)=C/CC/C(C)=C/CC/C(C)=C/CC/C(C)=C/CC/C(C)=C/CC/C(C)=C/CC/C(C)=C/CC1=C(C)C(=O)c2ccccc2C1=O` [Menaquinone8], the “Results: induction of growth of KLE1280” value in assay [2] (quinone isolated from E. coli) is listed as “No induction”; in assay [2] (setting [4]) it was “Very less induction (late)”.
On to `O=C(O)c1cc(O)c2ccccc2c1O` [DHNA, 1,4-dihydroxy-2-naphthoate], for which the “induction of growth of KLE1280” value in assay [2] was “showed induction of growth”.
Regarding `CC(C)=CCC/C(C)=C/CC/C(C)=C/CC/C(C)=C/CC/C(C)=C/CC/C(C)=C/CC/C(C)=C/CC1=C(C)C(=O)c2ccccc2C1=O` [Menaquinone7], in assay [2] (setting [4]), the “Results: induction of growth of KLE1280” value is given as “Very less induction (late)”.
Turning to `CC(C)=CCC/C(C)=C/CC/C(C)=C/CC/C(C)=C/CC/C(C)=C/CC/C(C)=C/CC1=C(C)C(=O)c2ccccc2C1=O` [Menaquinone6], the “Results: induction of growth of KLE1280” value in assay [2] (setting [4]) was “Induction”. Besides, in assay [1], the “growth of KLE1215” value is “growth-enhancing effects”.
For the molecule `COC1C(=O)C(C)=C(C/C=C(\C)CC/C=C(\C)CC/C=C(\C)CCC=C(C)C)C(=O)C1OC` (stereo not drawn) [Q4], in assay [2] (quinone commercially available), the “Results: induction of growth of KLE1280” value was “No induction”.
Turning to `COC1=C(OC)C(=O)C(C/C=C(\C)CC/C=C(\C)CC/C=C(\C)CC/C=C(\C)CC/C=C(\C)CC/C=C(\C)CCC=C(C)C)=C(C)C1=O` [Ubiquinone7], the “Results: induction of growth of KLE1280” value in assay [2] (quinone isolated from E. coli) is given as “No induction”.
